The subject of series [1] is A549. The series is described as follows: Growth inhibition of human A549 cells by MTT assay. It is filed as functional.
Series [2] deals with NCI-H460. In words: Antitumor activity against human NCI-H460 cells xenografted in BALB/c mouse assessed as decrease in tumor volume at 40 mg/kg, ip dosed every other day for 13 days. Format: functional, organism-based.
Series [3] deals with NCI-H460. In words: Antitumor activity against human NCI-H460 cells xenografted in BALB/c mouse assessed as decrease in tumor size at 40 mg/kg, ip dosed every other day for 13 days. Format: functional, organism-based. A general note: Xenograft models place foreign cells or tissue in a host animal.
The test system of series [4] is NCI-H460. In words: Effect on AIMP2 DX2 isoform mRNA expression in human NCI-H460 cells at 1.2 to 10 uM by RT-PCR analysis. It is filed as ADME, cell-based. The conditions noted are these: nci-h460, 10 µM.
A short description of series [5]: Growth inhibition of human WI26 cells incubated for 72 hrs by MTT assay. In general terms: Formazan colour is commonly taken as a measure of viable cells.
In the next series the test system is Calu-6. In words: Growth inhibition of human Calu6 cells incubated for 72 hrs by MTT assay. Format: functional. The conditions noted are these: Calu-6, 72 h.
Series [6] concerns NCI-H460. In words: Growth inhibition of human NCI-H460 cells incubated for 72 hrs by MTT assay. Format: functional. The note with it: NCI-H460, 72 h.
The test system of series [7] is Mus musculus. The series is described as follows: Effect on tumor AIMP2 expression in BALB/c mouse xenografted with human NCI-H460 cells at 40 mg/kg, ip dosed every other day for 13 days by SDS-PAGE and Western blotting analysis. It is filed as ADME, organism-based. The conditions noted are these: in vivo, 312 h.
Series [8] is filed under the species Mus musculus. The note with it: BALB/c, 40 mg/kg.
Description: Inhibition of tumor AIMP2-DX2 expression in BALB/c mouse xenografted with human NCI-H460 cells at 40 mg/kg, ip dosed every other day for 13 days by SDS-PAGE and Western blotting analysis
Series [9] is described as follows: Drug level in tumor of BALB/c mouse xenografted with human NCI-H460 cells […] at 40 mg/kg, ip dosed every other day for 13 days. It is filed as ADME, organism-based, Neoplasm. The note with it: read-out: Drug uptake.
The nature of series [10]: Toxicity in BALB/c mouse xenografted with human NCI-H460 cells assessed effect on body weight at 40 mg/kg, ip dosed every other day for 13 days. The conditions noted are these: in vivo, 312 h. Format: organism-based.
In series [11] the test system is A549. In words: Growth inhibition of human A549 cells incubated for 72 hrs by MTT assay. The conditions noted are these: A549, 72 h. Format: functional.
A further series has as its system NCI-H1299. The series is described as follows: Growth inhibition of human NCI-H1299 cells incubated for 72 hrs by MTT assay. The note with it: NCI-H1299, 72 h. It is filed as functional.
For series [12], the target named is T1, Aminoacyl tRNA synthase complex-interacting multifunctional protein 2 (Homo sapiens) (UniProt Q13155).
T1 sequence (whole entry): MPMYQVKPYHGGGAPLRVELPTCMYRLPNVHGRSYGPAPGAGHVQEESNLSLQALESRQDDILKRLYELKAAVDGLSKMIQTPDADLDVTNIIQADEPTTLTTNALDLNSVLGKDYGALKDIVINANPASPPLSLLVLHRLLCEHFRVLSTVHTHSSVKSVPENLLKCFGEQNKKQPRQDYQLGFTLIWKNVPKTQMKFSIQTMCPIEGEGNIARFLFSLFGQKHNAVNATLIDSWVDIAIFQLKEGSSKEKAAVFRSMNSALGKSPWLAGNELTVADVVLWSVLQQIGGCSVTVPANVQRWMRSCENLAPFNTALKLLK
In words: Inhibition of DX2-p14/ARF interaction in human SCLC cells assessed as inhibition of cell growth by MTT assay. Format: cell-based.

The next series relates to NSCLC. The series is described as follows: Growth inhibition of human NSCLC. It is filed as functional.
Series [13] is described as follows: Toxicity in BALB/c mouse xenografted with human NCI-H460 cells at 40 mg/kg, ip dosed every other day for 13 days. It is filed as organism-based. The conditions noted are these: in vivo, 312 h.

Active and inactive are the calls of the source. The calls are words filed in the database; no cut-off is given here.

A word on the GI50: it is the concentration at which growth is held to half of that of the control. In the series on A549 [1], `CN1CCN(CCOc2cccc(Nc3nc(-c4ccc(Cl)cc4)cc(N4CCOCC4)n3)c2)CC1` returned a GI50 of 6.5 µM.
On to `CN1CCN(CCOc2cccc(Nc3nccc(-c4ccc(Cl)cc4)n3)c2)CC1`, for which the result with NCI-H460 [2] and in the series with NCI-H460 [3] was Active. For the same molecule, the Activity result (in the series on NCI-H460 [4]; in the series on Mus musculus [7]; in series [10]) was “Non-Toxic” throughout. Also, in series [5], the “growth inhibition (GI)” value is “Non-Toxic”. The GI50 in the series with Calu-6 came to 4.22 µM; in the series on NCI-H460 [6], 0.89 µM; in the series with A549 [11] it was 1.13 µM; in the series with NCI-H1299, 5.78 µM. Moreover, the inhibition result in the series filed under Mus musculus [8] was “Active”. Besides, the concentration at 312 h in series [9] turned out to be 0.088 µM.
As for `CC1(C)Oc2cc3oc(=O)ccc3cc2C[C@@H]1OC(=O)/C=C/c1ccco1`, the GI50 in [12] was 5 to 10 µM; in the series on NSCLC it was > 50 µM.
Regarding `COC1CCCN(c2cc(-c3ccc(Cl)cc3)nc(Nc3cccc(OCCN4CCN(C)CC4)c3)n2)C1` (stereo not drawn), the outcome in the series with NCI-H460 [2] and with NCI-H460 [3] was Active. For the same molecule, the Activity entry (in the series on NCI-H460 [4]; with Mus musculus [7]; in series [13]; in series [10]) was “Non-Toxic” each time. The “growth inhibition (GI)” value in [5] is reported as “Non-Toxic”. Further, the GI50 in the series on Calu-6 came out at 4.4 µM; in the series on NCI-H460 [6], 0.6 µM; in the series on A549 [11], 2.82 µM; in the series with NCI-H1299 it was 4.18 µM. Further, the inhibition entry in the series listed under Mus musculus [8] is “Active”. The concentration at 312 h in series [9] was found to be 62.7 µM.

These data come from ChEMBL document CHEMBL4402586, “2-Aminophenylpyrimidines as Novel Inhibitors of Aminoacyl-tRNA Synthetase Interacting Multifunctional Protein 2 (AIMP2)-DX2 for Lung Cancer Treatment” (J Med Chem, 2020).
